Results: US20210261570A1, “ANTIBIOTIC RESISTANCE BREAKERS” (KING'S COLLEGE LONDON, priority 2017, published 2021)
Values after ≈ are worked out from the molar mass of the structure shown. Values joined by “and” are separate entries in the source; they are usually repeats but may differ in a detail not shown here. Identical values can stand only once. Like-named read-outs stand apart in the source and are kept apart here.

Assays:
[1] = tested on: S. aureus SA 238; assay: MIC, MDR strains with target mutations; assay type: cell-based
[2] = tested on: S. aureus SA 454; assay: MIC, MDR strains with target mutations; assay type: cell-based
[3] = tested on: multidrug resistant strains; assay: Reserpine growth assay in several multidrug resistant strains; assay type: cell-based; conditions: FIG. 27
Procedure: Reserpine was added at a final concentration of 10 g/mL (made up at 40 μg/mL in TSB, 50 μL per well). The bacteria were added at an OD of 0.01 in TSB (100 μL/well). The plate was a normal clear plate as used for MICs. OD was read every 30 minutes for 9 hours (the literature states 7 hours, but this is strain-dependent). Blanks of TSB and water were added to ensure no infections were present.

[4] = tested on: S. aureus SA 046; assay: MIC, MDR strains with target mutations; assay type: cell-based
[5] = tested on: EMRSA15; assay: MIC, microdilution broth method; assay type: cell-based, Staphylococcus aureus; conditions: EMRSA15; in µg/mL
[6] = tested on: S. aureus SA 275; assay: MIC, MDR strains with target mutations; assay type: cell-based; conditions: S. aureus SA 275 (gyrA, 84: S => V)
[7] = tested on: EMRSA16; assay: MIC, microdilution broth method; assay type: cell-based, Staphylococcus aureus; conditions: EMRSA16
[8] = tested on: S. aureus SA 105; assay type: cell-based; conditions: in µg/mL
[9] = tested on: S. aureus SA275 (gyrA, 84: S => L); assay: MIC, MDR strains with target mutations; assay type: cell-based; conditions: Table 11 second entry
[10] = tested on: S. aureus SA 215; assay: MIC, MDR strains with target mutations; assay type: cell-based; conditions: in µg/mL
[11] = Single dose pharmacokinetics study, oral and intravenous, blood and urine; assay type: in vivo; conditions: mouse; for Cmax: read-out: Co/Cmax
Procedure: ICR breed Mice (CD-1® IGS mice) were used in these studies and was supplied by Charles River (Margate UK) and. The mice were allowed to acclimatise for at least 7 days before starting the study. Treatments was administered by oral route or intravenous route according to the table below. For the PK study, 12 mice for each compound for oral route and 12 mice per compound for the intravenous route was treated. Mice was sequentially bled from a caudal vein into a 20 μL capillary (by agreement containing an anticoagulant) at different time as indicated in table below and a terminal bleed by cardiac puncture at 8 h after administration. Samples collected by capillary was directly transferred into a 96 well and mixed with 20 μL of water, then frozen and store at −80° C. until bioanalysis. Mice for urine collection was housed singly in metabolic cages and urine collected at 0-1, 1-2, 2-4 h and 4-8 h post administration. Urine removed from the collection vessels in the metabolic cages and were frozen and store at −80° C. until bioanalysis. 12 mice were used for urine collection. […] A compound specific LC-MS/MS method was developed for each test compound and samples was quantified using matrix matched calibrators. Samples was prepared for bio-analysis via protein precipitation. Concentration vs time data and non-compartmental analysis was utilised to determine relevant PK parameters e.g. CL, Vss, t1/2, AUCinf AUCo-t, Cmax, tmax, % F, % dose in urine and CLR.

[12] = tested on: S. aureus SA 282; assay: MIC, MDR strains with target mutations; assay type: cell-based
[13] = tested on: Staphylococcus aureus ATCC29213; assay: Murine model of thigh infection (neutropenic ICR mice); conditions: for decrease of thigh bacterial burden compared to vehicle group: 8 h and 14 h post infection
Description: 40 Male mice used in these study were supplied by Charles River UK and were specific pathogen free. The strain of mouse used was Hsd:ICR (CD-1®), which is a well characterized outbred strain. Mice were 11-15 g on receipt at Evotec's facility and were allowed to acclimatize for minimum of 7 days prior to infection. Mice were approximately 28 g at the start of the study. Mice were housed in sterile individual ventilated cages exposing animals at all times to HEPA filtered sterile air. Mice had free access to food and water (sterile) and had sterile aspen chip bedding. The room temperature was 22° C.±1° C., with a relative humidity of 50-60% and maximum background noise of 56 dB. Mice were exposed to 12 hour light/dark cycles with dawn/dusk phases.
All mice were rendered neutropenic by immunosuppression with cyclophosphamide at 150 mg/kg 4 days before infection and then 100 mg/kg 1 day before infection administered by intraperitoneal injection. The immunosuppression regime leads to neutropenia starting 24 hours post administration of the first injection, which continues throughout the study. Mice were infected approximately 24 hours after the second dose of immunosuppressive agent.
Staphylococcus aureus ATCC29213 was used for the study.
Whilst still under anaesthesia mice were administered a single dose of buprenorphine (0.03 mg/kg) subcutaneously for pain relief.
Test articles and comparator were prepared in stock solutions at 10× concentration as described in Table 20. The stock solutions were prepared in aliquots (1 aliquot per time of dosing) and frozen at −20° C. The solutions were thawed and then diluted in water just before dosing to obtain the appropriate concentration of 5 mg/mL or 2 mg/mL for oral administration at 10 mL/kg of the dose of 50 mg/kg or 20 mg/kg respectively (Table 20). 10% DMSO in water was used as the vehicle
After sacrifice of animal, both posterior thighs were removed, weighed, then homogenised in 2 mL PBS using a Precellys bead beater and the homogenates individually quantitatively cultured on CLED agar to determine the bacterial burdens.
The data from the culture burdens were analysed using appropriate non-parametric statistical models (Kruskal-Wallis using Conover-Inman to make all pairwise comparisons between groups) with StatsDirect software v. 2.7.8., and compared to pre-treatment and vehicle controls.

[14] = tested on: VRE12201; assay: MIC, microdilution broth method; assay type: cell-based, E. faecalis; conditions: VRE12201; Gram-positive; in µg/mL
[15] = tested on: S. aureus SA 388; assay type: cell-based
[16] = tested on: E. faecalis EF 602; assay type: cell-based
[17] = tested on: S. aureus USA300; assay: MIC; assay type: cell-based; conditions: Staphylococcus aureus
[18] = tested on: S. aureus SA 318; assay type: cell-based
[19] = tested on: S. aureus SH1000; assay: MIC; assay type: cell-based; conditions: Staphylococcus aureus
[20] = tested on: E. faecium EF 205; assay type: cell-based
[21] = ICR (CD-1 IGS), in vivo, iv, 5 mg/kg
[22] = ICR (CD-1 IGS), in vivo, po, 20 mg/kg
[23] = ICR (CD-1 IGS), in vivo, iv, 5.0 mg/kg, blood, Composite Mean

SMILES: C[C@H]1COc2c(N3CC[C@@H](Nc4ncccn4)C3)c(F)cc3c(=O)c(C(=O)O)cn1c23 [KSN-L22, (S)-9-fluoro-3-methyl-7-oxo-10-((R)-3-(pyrimidin-2-ylamino)pyrrolidin-1-yl)-2,3-dihydro-7H-[1,4]oxazino[2,3,4-ij]quinoline-6-carboxylic Acid]
- MIC [1]: 1 µg/mL (≈ 2.35 µM)
- MIC [2]: 1 µg/mL (≈ 2.35 µM)
- efflux from the bacteria (reserpine growth assay) [3]: reduced efflux
- MIC [4]: 1 µg/mL (≈ 2.35 µM)
- MIC [5]: 0.5-1
- MIC [6]: 1 µg/mL (≈ 2.35 µM)
- MIC [7]: 1 µg/mL (≈ 2.35 µM)
- MIC [8]: 1
- MIC [9]: 1 µg/mL (≈ 2.35 µM)
- MIC [10]: 1
- clearance ([11]; ICR (CD-1 IGS), in vivo, iv, 5.0 mg/kg, blood, Composite Mean, read-out: Blood CL): 12.5 mL/min/kg
- AUC(0-inf) [11, 21]: 6690 ng·h/mL
- AUC(0-inf) [11, 22]: 13200 ng·h/mL
- Bioavailability (%) Using AUCinf [11, 22]: 49.3%
- Bioavailability (%) Using AUCo. t [11, 22]: 32.0%
- CL_F [11, 22]: 26.4 mL/min/kg
- T1/2 ([11]; PO, 20.0 mg/kg, blood, Mean): 5.1 h
- Vdss ([11]; iv, 5.0 mg/kg, blood, Composite Mean): 1.4 L/kg
- MIC [12]: 1 µg/mL (≈ 2.35 µM)
- thigh bacterial burden, result in words ([13]; 20 and 50 mg/kg, 18 h post infection): statistically significant reduction of bacterial load

SMILES: C[C@H]1COc2c(N3CCN(C)CC3)c(F)cc3c(=O)c(C(=O)O)cn1c23 [Levofloxacin, levofloxacin]
- MIC [14]: 0.5-1
- MIC [1]: 32 µg/mL (≈ 88.6 µM)
- MIC [2]: 8 µg/mL (≈ 22.1 µM)
- MIC [4]: 16 µg/mL (≈ 44.3 µM)
- MIC [15]: 16 µg/mL (≈ 44.3 µM)
- MIC [16]: > 32 µg/mL
- MIC ([7]; Gram-positive): 16 µg/mL (≈ 44.3 µM)
- MIC [8]: 8-16
- MIC [17]: 8 µg/mL (≈ 22.1 µM)
- MIC [18]: 16 µg/mL (≈ 44.3 µM)
- MIC [10]: 32 and 16
- Cmax ([11]; ICR (CD-1 IGS), in vivo, PO, 20.0 mg/kg, blood, Mean): 2950 ng/mL
- half-life [11, 23]: 30 min
- Cmax [11, 23]: 3890 ng/mL
- AUC [11, 21]: 3090 ng·h/mL and 8.55 µM·h
- AUC(0-inf) [11, 21]: 3310 ng·h/mL and 9.19 µM·h
- MRT [11, 21]: 3 h
- Vd [11, 21]: 4.5 L/kg
- clearance [11, 21]: 25.2 mL/min/kg
- AUC [11, 22]: 4260 ng·h/mL and 11.8 µM·h
- AUC(0-inf) [11, 22]: 5390 ng·h/mL and 14.9 µM·h
- Bioavailability (%) Using AUCo. t [11, 22]: 34.5%
- Tmax [11, 22]: 30 min
- T1/2 ([11]; PO, 20.0 mg/kg, blood, Mean): 5.7 h
- decrease of thigh bacterial burden compared to vehicle group ([13]; 20 mg/kg/dose oral at 2 h, 18 h post infection): ~5 log10 CFU/g
- decrease of thigh bacterial burden compared to vehicle group ([13]; 50 mg/kg/dose oral at 2 h, 18 h post infection): ~5 log10 CFU/g
- body weights following infection ([13]; in vivo): unchanged
- Statistic analysis of thigh burden, P versus ML-83-009 20 mg/kg ([13]; substance at 20 mg/kg): P = 0.0003
- Statistic analysis of thigh burden, P versus ML-83-009 50 mg/kg ([13]; substance at 20 mg/kg): P = 0.0058
- Statistic analysis of thigh burden, P versus Vehicle ([13]; substance at 20 mg/kg): P < 0.0001
- Statistic analysis of thigh burden, P versus ML-83-009 20 mg/kg ([13]; substance at 50 mg/kg): P < 0.0001
- Statistic analysis of thigh burden, P versus ML-83-009 50 mg/kg ([13]; substance at 50 mg/kg): P < 0.0001
- Statistic analysis of thigh burden, P versus Pre treatment ([13]; substance at 50 mg/kg): P = 0.0084
- Statistic analysis of thigh burden, P versus Vehicle ([13]; substance at 50 mg/kg): P < 0.0001
- MIC [19]: 2 to 4 µg/mL (≈ 5.53 to 11.1 µM)
- MIC [20]: > 32 µg/mL
